Source: patent US8835389B2, “Use of calcitonin for the treatment of RA” (priority 2005, dated 2014)
No end group written: not given here.

Tests used:
[1] = in vivo
[2] = Water solubility of delivery agents
[3] = tested on: Collagen Induced Arthritis model (CIA-model) in lewis rats; assay: Collagen Induced Arthritis model (CIA-model), serum CTX-II; type: in vivo; details: day 21 after collagen injection, 50 mg/kg 5-CNAC+calcitonin 2 mg/kg twice daily, versus CIA-group
Text: Arthritis induced in rodents by the systemic administration of type II collagen (CII) is an experimental model with many resemblances to RA, and is widely used for studying the disease processes (reviewed in Wooley P H, Chapedelaine J M. Immunogenetics of collagen-induced arthritis. Crit Rev Immunol 1987; 8: 1-22; and Trentham D E. Collagen arthritis as a relevant model for rheumatoid arthritis. Arth Rheum 1982; 25: 9116).
Upon immunization with purified CII in complete Freund's adjuvant, genetically susceptible strains of rodents develop arthritis, which is characterized by cellular and humoral immune responses to CII. […]
Animals are monitored for signs of arthritis one week post immunization on a daily basis and a clinical scoring system is adopted wherein each limb is given a clinical score on the basis of visual signs of oedema and/or erythema as follows: 0=normal, 1=slight swelling and/or erythema at the base of the paw, 2=frank oedema and erythema involving the entire paw, 2·5=pronounced oedema and erythema leading to an incapacitated limb mobility, 3=ankylosis, as previously described in Malfait A M, Butler D M, Presky D H et al., Blockade of IL-12 during the induction of collagen-induced arthritis (CIA) markedly attenuates the severity of the arthritis. […]

In the case of `O=C(O)CCCCCCCNC(=O)c1cc(Cl)ccc1O` [5 CNAC, N-(5-chlorosalicyloyl)-8-aminocaprylic acid], the “absorbed by the gastro-intestinal tract” value [1] is reported as “greater than 90%”.

For `O=C(O)CCCCCCCCCNC(=O)c1ccccc1O` [SNAD, N-(10-[2-hydroxybenzoyl]amino)decanoic acid], the water solubility [2] was “very water soluble”.

For “Calcitonin (CGNLSTCMLGTYTQDFNKFHTFPQTAIGVGAP; ends and bridges not checked; cysteine pairing not given here; UniProt P01258 85-116, looked up)”, the “reduction of the increase in serum c-terminal telopeptide of type II collagen (serum CTX-II)” value [3] was 33%.
